The values that follow are results of earlier work, collected in patent publication US6998391B2, “Method for treating diseases associated with abnormal kinase activity” (SuperGen.Inc., priority 2002, dated 2006).

Structures can show the parent of a compound that is named as a salt. Where two headings read alike, the source gives them in different places. Where no end group is shown, it is not given here.

The subject of data set [1] is prostate cancer cells and osteoblasts. The following applies: various in vitro and in vivo models.
In data set [2] the test system is erbB receptor tyrosine kinase family. The following applies: human cancer cell lines.
For data set [3], the system named is platelet-derived growth factor receptor, fibroblast growth factor receptor, and insulin receptor. The settings on record: even at high concentrations.
The test system of data set [4] is Syk.
The next data set relates to ERK1. The settings on record: low doses.
The subject of another data set is tumor microvessels. The following applies: mouse, in vivo.
For the next data set, the target named is T1, JAK3 (Homo sapiens, UniProt P52333).
T1 sequence (P52333 1-1124): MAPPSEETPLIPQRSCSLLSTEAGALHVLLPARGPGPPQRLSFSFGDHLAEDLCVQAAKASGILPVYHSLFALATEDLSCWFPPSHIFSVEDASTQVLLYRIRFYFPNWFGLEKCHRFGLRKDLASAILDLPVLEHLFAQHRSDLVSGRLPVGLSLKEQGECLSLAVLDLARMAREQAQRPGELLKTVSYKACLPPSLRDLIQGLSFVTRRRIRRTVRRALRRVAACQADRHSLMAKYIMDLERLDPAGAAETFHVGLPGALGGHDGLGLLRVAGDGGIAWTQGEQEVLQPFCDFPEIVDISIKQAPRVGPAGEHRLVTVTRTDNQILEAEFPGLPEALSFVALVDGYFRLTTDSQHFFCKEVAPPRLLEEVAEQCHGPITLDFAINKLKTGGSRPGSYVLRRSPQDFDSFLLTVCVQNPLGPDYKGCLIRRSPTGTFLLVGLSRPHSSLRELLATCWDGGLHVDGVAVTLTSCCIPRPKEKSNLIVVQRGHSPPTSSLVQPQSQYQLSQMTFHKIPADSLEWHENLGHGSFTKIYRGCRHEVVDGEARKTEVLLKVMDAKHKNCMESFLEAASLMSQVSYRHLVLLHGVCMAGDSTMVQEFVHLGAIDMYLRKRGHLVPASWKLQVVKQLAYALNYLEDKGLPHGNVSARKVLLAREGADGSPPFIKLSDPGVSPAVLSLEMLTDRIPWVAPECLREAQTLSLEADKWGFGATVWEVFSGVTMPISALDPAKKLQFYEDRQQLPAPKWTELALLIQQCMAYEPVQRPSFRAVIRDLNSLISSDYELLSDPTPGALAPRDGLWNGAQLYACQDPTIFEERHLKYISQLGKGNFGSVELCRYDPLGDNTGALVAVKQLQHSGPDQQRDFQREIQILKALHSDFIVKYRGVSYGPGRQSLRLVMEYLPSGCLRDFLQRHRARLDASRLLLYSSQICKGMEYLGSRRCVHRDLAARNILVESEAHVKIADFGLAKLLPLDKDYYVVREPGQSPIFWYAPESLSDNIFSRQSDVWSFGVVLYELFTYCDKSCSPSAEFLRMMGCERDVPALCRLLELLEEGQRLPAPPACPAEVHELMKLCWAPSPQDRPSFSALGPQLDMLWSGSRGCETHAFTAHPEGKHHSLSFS
The following applies: dose-dependent fashion.

In another data set the target is T2, ZAP-70 (Homo sapiens, UniProt P43403).
T2 sequence (P43403 1-619): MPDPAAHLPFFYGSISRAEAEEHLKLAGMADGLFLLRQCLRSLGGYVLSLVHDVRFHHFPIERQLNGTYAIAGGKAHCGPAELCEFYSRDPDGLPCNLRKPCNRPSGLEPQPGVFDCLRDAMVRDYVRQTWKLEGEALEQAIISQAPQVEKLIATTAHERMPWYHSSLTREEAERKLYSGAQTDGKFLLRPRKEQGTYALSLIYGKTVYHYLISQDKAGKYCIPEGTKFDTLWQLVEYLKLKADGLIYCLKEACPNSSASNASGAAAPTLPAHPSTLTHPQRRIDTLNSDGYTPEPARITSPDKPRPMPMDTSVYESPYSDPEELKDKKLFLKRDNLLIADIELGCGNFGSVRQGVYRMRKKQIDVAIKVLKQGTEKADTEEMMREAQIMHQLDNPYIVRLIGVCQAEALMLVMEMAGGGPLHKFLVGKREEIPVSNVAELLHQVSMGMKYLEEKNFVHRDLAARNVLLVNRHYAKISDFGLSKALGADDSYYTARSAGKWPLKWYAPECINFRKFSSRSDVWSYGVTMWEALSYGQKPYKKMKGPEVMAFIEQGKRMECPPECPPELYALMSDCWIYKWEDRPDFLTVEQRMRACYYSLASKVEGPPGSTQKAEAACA

The target of data set [5] is Syk (Homo sapiens, UniProt P43405).
Another data set has as its target Lck (Homo sapiens, UniProt P06239).
The mark [6] stands for this setting: patients with chronic phase CML.

Lck, sequence (P06239 whole entry, species assumed): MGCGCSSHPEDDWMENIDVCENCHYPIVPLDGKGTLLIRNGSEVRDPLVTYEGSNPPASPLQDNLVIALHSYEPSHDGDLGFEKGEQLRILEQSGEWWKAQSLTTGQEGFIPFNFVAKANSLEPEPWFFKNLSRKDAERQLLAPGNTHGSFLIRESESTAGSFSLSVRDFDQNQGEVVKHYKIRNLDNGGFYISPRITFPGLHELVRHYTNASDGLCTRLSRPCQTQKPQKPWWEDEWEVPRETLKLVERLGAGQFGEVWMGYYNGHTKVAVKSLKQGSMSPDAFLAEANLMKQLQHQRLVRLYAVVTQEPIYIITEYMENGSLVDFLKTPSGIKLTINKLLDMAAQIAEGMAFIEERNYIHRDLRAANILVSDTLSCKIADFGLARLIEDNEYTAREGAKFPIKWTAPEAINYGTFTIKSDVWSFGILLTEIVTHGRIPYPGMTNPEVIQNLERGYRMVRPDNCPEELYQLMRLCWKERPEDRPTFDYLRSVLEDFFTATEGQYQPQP

Consider `CO[C@]1(CO)C[C@H]2O[C@]1(C)n1c3ccccc3c3c4c(c5c6ccccc6n2c5c31)C(=O)NC4` [CEP-75 1], for which, in data set [1], the “apoptosis of prostate cancer cells and osteoblasts” value is recorded as “selectively induce apoptosis”.

Consider `C[C@]12O[C@H](C[C@]1(O)CO)n1c3ccccc3c3c4c(c5c6ccccc6n2c5c31)CNC4=O` [CEP-701], for which, in data set [1], the “apoptosis of prostate cancer cells and osteoblasts” value is reported as “selectively induce apoptosis”.

For `C=CC(=O)Nc1cc2c(Nc3ccc(F)c(Cl)c3)ncnc2cc1OCCCN1CCOCC1` [CI-1033], the “inhibition of tyrosine kinase activity” value in data set [2] is “prompt, potent, and sustained inhibition”. Also, in [3], the “inhibition of tyrosine kinase activity of other receptors” value was “without inhibiting”.

As to `Cc1ccc2c(=O)c3ccccc3n(CCCN)c2c1C.O=C(O)C(=O)O` [ER-27319, 3,4-dimethyl-10-(3-aminopropyl)-9-acridone oxalate], in the data set with Syk [4] (intact mast cells, not Lyn), the “FceRI-mediated degranulation, tyrosine phosphorylation of Syk” value is “inhibits”.

On to `Cc1ccc(NC(=O)c2ccc(CN3CCN(C)CC3)cc2)cc1Nc1nccc(-c2cccnc2)n1` [Imatinib mesylate], for which the results for the complete cytogenetic response with CML patients (accelerated phase CML), in the data set on CML patients (blast phase CML) and in the data set with CML patients (chronic phase CML) were 14%, 5% and 30%, respectively. In addition, the “complete cytogenetic response maintained for four weeks” value in the data set with CML patients (accelerated phase CML) was 4%; with CML patients (blast phase CML), 1%; in the data set with CML patients (chronic phase CML), 16%. In addition, the figures for the remissions in the data set on CML patients (accelerated phase CML patients) and in the data set on CML patients (blast phase patients) were 63% and 26%, respectively. The complete hematologic response with CML patients (setting [6]) is 88%. Moreover, the major cytogenetic response with CML patients (setting [6]) is reported as 49%.

As for `COc1cccc(-c2cc(=O)c3ccccc3o2)c1N` [PD98059], in the data set on ERK5, the ERK5/BMK1 pathway inhibition result was “inhibited”. Also, in the data set on ERK1/2 pathway, the “cyclin D1 expression and cell proliferation” value is “prevented cyclin D1 expression and inhibits cell proliferation”.

For the molecule `O=C(NOCC1CC1)c1ccc(F)c(F)c1Nc1ccc(I)cc1Cl` [PD184352], the “effect on ERK5” value with ERK5 (low doses) was “no effect”. For the same molecule, the ERK1 activity entry with ERK1 was “abolished”.

Consider `Oc1cc(O)cc(/C=C/c2ccc(O)c(O)c2)c1` [Piceatannol, 3,4,3′,5′-tetrahydroxy-trans-stilbene], for which the “FceRI-mediated IP3 production, serotonin secretion, membrane ruffling and cell spreading” value with Syk [4] (by inhibiting Syk) was “inhibits”.

Consider `Cc1[nH]c(/C=C2\C(=O)Nc3ccccc32)c(C)c1CCC(=O)O` [SU6668], for which, in the data set with tumor microvessels, the “time to apoptosis in tumor microvessels after initiation of treatment” value is at most 6 h and the “time to dose-dependent decreases in tumor microvessel density after first treatment” value is reported as at most 3 days.

As for `N#CC(=C(/N)Sc1ccccc1N)/C(C#N)=C(\N)Sc1ccccc1N` [U0126], the ERK5/BMK1 pathway inhibition result in the data set on ERK5 is listed as “inhibited”. For the same molecule, the “cyclin D1 expression and cell proliferation” value in the data set with ERK1/2 pathway was “prevented cyclin D1 expression and inhibits cell proliferation”.

In the case of `COc1cc2ncnc(Nc3cc(Br)c(O)c(Br)c3)c2cc1OC` [WHI-P97, 4-(3′,5′-dibromo-4′-hydroxylphenyl)-amino-6,7-dimethoxyquinazoline], the JAK3 inhibition result on JAK3 is on record as “inhibited JAK3”.

With `COc1cc2ncnc(Nc3ccc(O)c(Br)c3)c2cc1OC` [WHI-P 154, 4-(3′-bromo-4′-hydroxylphenyl)-amino-6,7-dimethoxyquinazoline], the JAK3 inhibition entry on JAK3 is given as “inhibited JAK3”.

As for KLILFLLL, in the data set with ZAP-70, the “inhibition of ZAP-70” value is “competitive inhibitor”. For the same molecule, the “inhibition of Syk” value with Syk [5] is listed as “poor inhibitor”. Further, the “inhibition of Lck” value with Lck is “poor inhibitor”.
